This is an account of results in patent EP4309647A1, “G[…] FRACTIONS OF PINE NUT SKIN, METHODS AND USES THEREOF” (Universidade de Aveiro, priority 2022, dated 2024).

The nature of this assay: Effect on cholesterol solubility / bioaccessibility in an in vitro intestinal model (GDCA bile salt micelles, 13C NMR quantification of [4-13C]cholesterol). The note with it: cholesterol 3.5 mM, amount equivalent to 3.5 mM β-sitosterol. Here is the method:
In an embodiment, to evaluate the effect of the lipophilic extracts on cholesterol solubility, an in vitro intestinal model with glycodehoxycholic acid (GDCA) at 37 °C and pH 7.4 was used.
In an embodiment, solutions of cholesterol labeled with carbon-13 at carbon 4 ([4-^13C]cholesterol) with or without pine nut skin extracts was prepared in azeotropic mixtures of chloroform/methanol (87:13, v/v). Films are formed by solvent evaporation under a stream of nitrogen and heating. To remove possible traces of organic solvents, the films with cholesterol were placed on a desiccator under vacuum during, for example, 30 minutes at room temperature. […]
In an embodiment, to evaluate this effect, the bioaccessibility of labelled cholesterol([4-^13C]cholesterol) was measured by ^13C NMR, using an in vitro intestinal model composed of glycodeoxycholic acid bile salt micelles and lipophilic extracts from pine nut skin and from the two separated fractions, added individually.
In an embodiment, the quantification of cholesterol by ^13C NMR was possible due to the utilization of an isotopomer of cholesterol fully enriched in ^13C in carbon 4, which has a typical peak at 44 ppm, distinguishable from GDCA resonances. […] This methodology allows to quantify [4-^13C] cholesterol which is emulsified on the bile salt micelles, that is, the available quantity which is likely to be absorbed (bioaccessible). […]

SMILES strings stand for the structures.

As for `CC[C@H](CC[C@@H](C)[C@H]1CC[C@H]2[C@@H]3CC=C4C[C@@H](O)CC[C@]4(C)[C@H]3CC[C@]12C)C(C)C` [β-Sitosterol], the “cholesterol emulsified (solubilized, bioaccessible)” value (GDCA 50 mM) turned out to be 1.6 mM. Further, the “reduction of cholesterol solubility / bioaccessability relatively to the control” value (control = GDCA and [4-13C]cholesterol) turned out to be 49%.
